Results on eight molecules are retold here after ChEMBL document CHEMBL6134825, “Mechanisms and therapeutic strategies for NLRP3 degradation via post-translational modifications in ubiquitin-proteasome and autophagy lysosomal pathway” (Eur J Med Chem, 2025).

Data set [1] is described as follows: Microsomal metabolic stability in Beagle dog liver microsomes assessed as half life […] by LC-MS/MS analysis. It is filed as ADME, Canis lupus familiaris, Microsome. Background: Liver microsomes are a subcellular fraction often used to study metabolism.
Data set [2] in a line: AUC(0 to t) in Beagle dog at 3.6 mg/kg, po measured for 24 hrs by LC-MS/MS analysis. The following applies: in vivo. Type of data set: ADME, organism-based, Canis lupus familiaris.
Data set [3] is described as follows: Oral bioavailability in Beagle dog at 3.6 mg/kgm measured for 24 hrs by LC-MS/MS analysis. Type of data set: ADME, organism-based, Canis lupus familiaris. The following applies: in vivo, dose 3.6 mg/kg.
Data set [4] in a line: Metabolic stability in human liver microsome assessed as half life. The following applies: liver microsomes.
Data set [5] in a line: Oral bioavailability in human at 2 microg/kg measured for 60 mins by LC-MS/MS analysis. The following applies: in vivo, 0.002 mg/kg.
Data set [6] is described as follows: AUC(0 to t) in ICR mouse plasma at 2 microg/kg, po measured for 60 mins by LC-MS/MS analysis. The following applies: 0.002 mg/kg.
Data set [7] can be described thus: AUC(0 to t) in Sprague-Dawley rat at 20 mg/kg, po measured up to 24 hrs by LC-MS/MS analysis. Type of data set: ADME, organism-based. The following applies: in vivo.
Data set [8] in a line: Oral bioavailability in Sprague-Dawley rat at 20 mg/kg by LC-MS/MS analysis. It is filed as ADME, organism-based. The following applies: in vivo.
The nature of data set [9]: Oral bioavailability in Sprague-Dawley rat at 5 mg/kg by LC-MS/MA analysis. Type of data set: ADME, organism-based. The following applies: in vivo.
A short description of data set [10]: Toxicity in rat assessed as lethal dose. The following applies: in vivo.
Data set [11] in a line: AUC(0 to t) in Sprague-Dawley rat at 300 mg/kg, po measured up to 24 hrs by LC-MS/MS analysis. It is filed as ADME, organism-based. The following applies: in vivo.
Data set [12] in a line: Metabolic stability in rat liver microsomes assessed as half life measured for 60 mins by LC-MS/MS analysis. It is filed as ADME, Microsome.
Data set [13] can be described thus: AUC(0 to t) in Sprague-Dawley rat at 5 mg/kg, po measured up to 24 hrs by LC-MS/MS analysis. It is filed as ADME, organism-based. The following applies: in vivo.
Data set [14] is described as follows: Toxicity in ip dosed rat assessed as lethal dose. Type of data set: organism-based. The following applies: in vivo.
A short description of data set [15]: Toxicity in iv dosed rat assessed as lethal dose. It is filed as organism-based. The following applies: in vivo.
The nature of data set [16]: AUC(0 to t) in ICR mouse plasma at 5 mg/kg, po measured for 60 mins by LC-MS/MS analysis. It is filed as ADME, organism-based.
The nature of data set [17]: Oral bioavailability in ICR mouse at 5 mg/kg. Type of data set: ADME, organism-based. The following applies: in vivo.
Data set [18] in a line: Acute toxicity in po dosed ICR mouse assessed as lethal dose. It is filed as organism-based. The following applies: in vivo.

For orientation: half-life means the time needed for the level to fall by half in the phase considered. Broadly, the AUC(0-t) is the area under the concentration-time curve up to a stated or last time point. Low readings indicate low exposure, high ones high exposure. In general, bioavailability refers to dose-corrected exposure relative to a reference, in per cent. Lower therefore signals poor availability. A word on the LD50: it is the dose expected to kill half of the subjects tested.

As to `C[C@@H]1C(=O)O[C@H]2[C@@H](O)C34[C@H]5C[C@@H](C(C)(C)C)C36[C@@H](OC(=O)[C@@H]6O)O[C@@]4(C(=O)O5)[C@@]12O` (stereo partly drawn), in [1], the half-life is 1 h. In addition, in data set [2], the AUC(0-t) at 24 h was determined as 356 µg·h/mL. The molecule also registered a bioavailability in [3] of 17%.

Take `Cc1cccc([C@H](C)c2cnc[nH]2)c1C` [DEXMEDETOMIDINE]: the half-life in data set [4] is 2 h. In addition, in data set [5], the bioavailability at 1 h was 15.6%. The AUC(0-t) at 1 h in data set [6] was 0.45 µg·h/mL.

In data set [7], `O=c1c(O)c(-c2ccc(O)cc2)oc2cc(O)cc(O)c12` [KAEMPFEROL] came in with an AUC(0-t) at 24 h of 234 µg·h/mL. The results for the bioavailability in [8] and in [9] were 2% and 7%, respectively. In addition, the 50% lethal dose (LD50) in data set [10] is 3810 mg/kg.

In the case of `O=C1c2cccc(O)c2C(=O)c2c(O)cc(CO)cc21` [ALOE-EMODIN], the AUC(0-t) at 24 h in [11] amounted to 42.8 µg·h/mL.

As to `Cc1cnc(-c2ccccc2C(C)C)nc1NCc1ccc(-n2ccnn2)cc1`, the half-life in data set [12] was 0.2 h.

Molecule `O=c1c(-c2ccc(O)cc2)coc2c([C@@H]3O[C@H](CO)[C@@H](O)[C@H](O)[C@H]3O)c(O)ccc12` [PUERARIN] returned an AUC(0-t) at 24 h in data set [13] of 109 µg·h/mL. Besides, the figures for the 50% lethal dose (LD50) in data set [14] and in [15] were 1410 mg/kg and 634 mg/kg, respectively.

With `O=C(Nc1c2c(cc3c1CCC3)CCC2)NS(=O)(=O)c1ccc(OCCOCCOCCOCCN2C(=O)/C(=C\c3cc(Br)c(O)c(Br)c3)c3cc(I)ccc32)cc1`, the exposure AUC(0-t) at 1 h in data set [16] is 551 µg·h/mL. In data set [17], this molecule had a bioavailability of 19%.

For `COc1cc(/C=C/C(=O)O)ccc1O` [FERULATE], the LD50 in data set [18] was 3200 mg/kg.
